According to PMC11555231 (Nature Communications, 2024):
Bridge positions count the residues as written; N and C are the ends. Square brackets hold non-standard residues; d marks the D form. Peptide text beside a SMILES is read from it.

Key:
human neutrophils [1] = test: Time-lapse imaging and NET quantification (NETosis); type: cell-based
Procedure: (§1) Peripheral venous blood was isolated from consenting healthy adult volunteers in heparin tubes as previously described. Briefly, blood samples were on Histopaque 1119 (Sigma-Aldrich) and then centrifuged for 20 min at 800 × g. The plasma was collected and centrifuged for a second time for 20 min at 800 × g. The neutrophil layer was collected and washed in Hyclone Hank’s Balanced Salt Solution (HBSS) -Ca, -Mg, -Phenol red (GE Healthcare) supplemented with 10 mM HEPES (Invitrogen) 0.1% FBS and further purified with a discontinuous Percoll (GE Healthcare) gradient consisting of layers with densities of 85, 80, 75, 70 and 65% and centrifuged for 20 min at 800 × g. Neutrophil-enriched layers were then collected and washed, and neutrophil purity was assessed using flow cytometry.
About 5 × 10^4 human neutrophils were seeded in a black 96-well plate (PerkinElmer) in HyClone HBSS +Ca, +Mg, - Phenol red (GE Healthcare) containing 10 mM HEPES (Invitrogen). Cells were pre-incubated with the corresponding peptide for 60 min prior to the start of the experiment. DNA of live cells was stained with 4 µg/mL Hoechst (membrane permeable; Thermo Scientific) and DNA from dead cells with 0.2 µM Sytox-green (membrane impermeable; Invitrogen). Cells were stimulated with 100 nM PMA, 5 µM Ca-Ionophore or 0.1 mg/mL cholesterol crystals at the start of the microscope acquisition. Plates stimulated with cholesterol crystals were centrifuged at 300×g for 5 min at RT immediately prior to microscope acquisition. The cells were imaged on an inverted Nikon wide-field microscope system at 37 °C and CO2 (5%). Four fields of view were acquired per well every 15 mins for 10–15 h using a 40x objective. NETs were differentiated from necrotic cells by the size of the sytox signal using FIJI[86]. […] [85]. Area measurements were distributed into bins of increasing area sizes and plotted as a percentage of the total number of Sytox-green positive (dead) cells.

human neutrophils [2] = test: Ca-ionophore stimulated neutrophils, citrullinated H3 immunostaining and confocal microscopy / immunoblot; type: cell-based; settings: sheet Figure_3G, Ca-I + peptide
Procedure: as §1
About 5 × 10^4 sorted neutrophils were seeded in 24-well cell culture plates containing glass coverslips in HyClone HBSS +Ca, +Mg, - Phenol red (GE Healthcare) supplemented with 10 mM HEPES (Invitrogen). Neutrophils were stimulated with 5 µM Ca-Ionophore (Sigma) and fixed for 20 min at room temperature with 2% paraformaldehyde at RT. Cells were then washed and permeabilized with 0.5% Triton X-100 in PBS. Non-specific binding was blocked with 2% BSA (Sigma) and 2% donkey serum (Sigma) in PBS. Samples were stained with DAPI (Life Technologies), the rabbit anti-CitH3 (Abcam; ab5103 1:500) and donkey anti-rabbit alexa488 (Invitrogen; A21206). Fluorescence imaging was performed on a Leica TCS SP8 inverted confocal microscope using sequential scan in between frames mode with a 20x objective.
Neutrophil samples were boiled in a sodium dodecyl sulphate (SDS) buffer containing dithiothreitol (DTT) and run on a polyacrylamide gel electrophoresis (SDS-PAGE) using Criterion TGX precast gels (Any-KD; Bio-Rad Laboratories). Proteins were then transferred to a PVDF membrane (Bio-Rad Laboratories) via semi-dry transfer. The membrane was blocked with 5% BSA (Fisher Scientific) in Tris-buffered saline with 0.1% Tween-20 (TBS-T). Levels of citrullinated histone H3, total H3 and myeloperoxidase (MPO) were assessed by incubating membranes in either anti-histone H3 citrulline R2 + R8 + R17 (Abcam; ab5103 1:1000), anti-histone H3 (Millipore; 07-690 1:10000) or anti-MPO (DAKO; A0398 1:2500) overnight at 4 °C, respectively. For cell lysate-based assays and pull-down assays, membranes were incubated as above with anti-hPADI4 (Abcam; ab50332; 1:1000 in 5% BSA/TBS-T), anti-Bcr (Cell Signalling #3902S; 1:1000 in 3% milk/TBS-T) and anti-Impdh2 (Cell Signalling #57068S; 1:1000 in 3% milk/TBS-T). Membranes were washed in 0.1% TBS-T and subsequently incubated with goat anti-rabbit HRP or anti-goat (Fisher Scientific) for 1 h, followed by final washes in 0.1% TBS-T. Membranes were imaged with enhanced chemiluminescent substrate (ECL) (Thermo Fisher) on a Bio-Rad imager.

[3] = DNA area (μm) 1500, replicate 1
[4] = DNA area (μm) 1500, replicate 2
[5] = DNA area (μm) 1500, replicate 4

| SMILES | share per DNA area bin (human neutrophils [1]; DNA area (μm) 150, replicate 1) | share per DNA area bin (human neutrophils [1]; DNA area (μm) 150, replicate 2) | share per DNA area bin (human neutrophils [1]; DNA area (μm) 150, replicate 3) | share per DNA area bin (human neutrophils [1]; DNA area (μm) 150, replicate 4) | share per DNA area bin (human neutrophils [1]; DNA area (μm) 250, replicate 1) | share per DNA area bin (human neutrophils [1]; DNA area (μm) 250, replicate 2) | share per DNA area bin (human neutrophils [1]; DNA area (μm) 250, replicate 3) | share per DNA area bin (human neutrophils [1]; DNA area (μm) 250, replicate 4) | share per DNA area bin (human neutrophils [1]; DNA area (μm) 750, replicate 1) | share per DNA area bin (human neutrophils [1]; DNA area (μm) 750, replicate 2) | share per DNA area bin (human neutrophils [1]; DNA area (μm) 750, replicate 3) | share per DNA area bin (human neutrophils [1]; DNA area (μm) 750, replicate 4) | share per DNA area bin (human neutrophils [1]; [3]) | share per DNA area bin (human neutrophils [1]; [4]) | share per DNA area bin (human neutrophils [1]; DNA area (μm) 1500, replicate 3) | share per DNA area bin (human neutrophils [1]; [5]) | Figure 3G quantification in Ca-I stimulated neutrophils (citrullinated H3 immunostaining) (human neutrophils [2]; replicate 1 (first data row)) | Figure 3G quantification in Ca-I stimulated neutrophils (citrullinated H3 immunostaining) (human neutrophils [2]; replicate 2 (second data row)) | Figure 3G quantification in Ca-I stimulated neutrophils (citrullinated H3 immunostaining) (human neutrophils [2]; replicate 3 (third data row)) | Figure 3G quantification in Ca-I stimulated neutrophils (citrullinated H3 immunostaining) (human neutrophils [2]; replicate 4 (fourth data row)) |
| --- | --- | --- | --- | --- | --- | --- | --- | --- | --- | --- | --- | --- | --- | --- | --- | --- | --- | --- | --- | --- |
| N=C(N)NCCC[C@@H]1NC(=O)[C@H](Cc2ccc(O)cc2)NC(=O)[C@H](Cc2c[nH]cn2)NC(=O)[C@H](Cc2c[nH]cn2)NC(=O)[C@H](CC(=O)O)NC(=O)[C@H](CCCNC(=N)N)NC(=O)[C@@H](Cc2ccc(O)cc2)NC(=O)CSC[C@@H](C(=O)NCC(N)=O)NC(=O)[C@H](Cc2ccc(O)cc2)NC(=O)[C@H](CCCCN)NC(=O)[C@@H]2CCCN2C(=O)[C@H](Cc2c[nH]cn2)NC1=O [PAD4-3] ({CH2CO}-[dY]RDHHYRHPKYCG-NH2; thioether N-12) | 61.7647 | 57.1429 | 62.8571 | 54.7619 | 14.7059 | 5.7143 | 5.7143 | 21.4286 | 23.5294 | 37.1429 | 31.4286 | 23.8095 | 0 | 0 | 0 | 0 | – | – | – | – |
| N=C(N)NCCC[C@@H]1NC(=O)[C@H](CC(=O)O)NC(=O)[C@@H](Cc2ccc(O)cc2)NC(=O)CSC[C@@H](C(=O)NCC(N)=O)NC(=O)[C@H](Cc2ccc(O)cc2)NC(=O)[C@H](CCCCN)NC(=O)[C@@H]2CCCN2C(=O)[C@H](Cc2c[nH]cn2)NC(=O)[C@H](CCCNC(=N)N)NC(=O)[C@H](Cc2ccc(O)cc2)NC(=O)[C@H](Cc2c[nH]cn2)NC(=O)[C@H](Cc2c[nH]cn2)NC1=O [PAD4-3inv] ({CH2CO}-[dY]DRHHYRHPKYCG-NH2; thioether N-12) | 64 | 52.1739 | 52.1739 | 45.1613 | 20 | 0 | 17.3913 | 22.5806 | 16 | 47.8261 | 30.4348 | 29.0323 | 0 | 0 | – | 3.2258 | – | – | – | – |
| N=C(N)NCCC[C@@H]1NC(=O)[C@H](CC(=O)O)NC(=O)[C@@H](Cc2ccc(O)cc2)NC(=O)CSC[C@@H](C(=O)NCC(N)=O)NC(=O)[C@H](Cc2ccc(O)cc2)NC(=O)[C@H](CCCCN)NC(=O)[C@@H]2CCCN2C(=O)[C@H](Cc2c[nH]cn2)NC(=O)[C@H](CCCNC(=N)N)NC(=O)[C@H](Cc2ccc(O)cc2)NC(=O)[C@H](Cc2c[nH]cn2)NC(=O)[C@H](Cc2c[nH]cn2)NC1=O [PADI4-3i] ({CH2CO}-[dY]DRHHYRHPKYCG-NH2; thioether N-12) | – | – | – | – | – | – | – | – | – | – | – | – | – | – | – | – | 33.3333 | 50 | 41.6667 | 50 |
